Counter-ions that a name gives are not always drawn.

The first assay deals with T1, CSBP2 (Homo sapiens, UniProt Q16539).
T1 construct: made in house; host or cells: yeast
T1 sequence (Q16539 whole entry): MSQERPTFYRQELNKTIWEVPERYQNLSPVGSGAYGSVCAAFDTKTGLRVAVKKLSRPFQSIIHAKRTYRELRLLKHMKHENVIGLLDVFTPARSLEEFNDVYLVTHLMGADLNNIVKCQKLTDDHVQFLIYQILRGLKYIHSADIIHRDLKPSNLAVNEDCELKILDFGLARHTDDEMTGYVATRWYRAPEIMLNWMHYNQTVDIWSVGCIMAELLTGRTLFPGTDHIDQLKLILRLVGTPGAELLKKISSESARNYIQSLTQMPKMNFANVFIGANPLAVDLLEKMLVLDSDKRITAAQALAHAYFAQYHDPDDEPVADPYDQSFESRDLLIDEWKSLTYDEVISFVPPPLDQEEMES
In words: CSBP Kinase Assay (32P transfer to EGFR-derived peptide T669). It is filed as biochemical. To be noted: 170 uM ATP, 0.4 mM T669 peptide, 30° C., 10 min; read-out: positive inhibitory activity, IC50 in CSBP kinase assay. As to the method: This assay measures the CSBP-catalyzed transfer of ^32 P from […] to threonine residue in an epidermal growth factor receptor (EGFR)-derived peptide (T669) with the following sequence: […] (residues 661-681). (See Gallagher et al., "Regulation of Stress Induced Cytokine Production by Pyridinyl Imidazoles: Inhibition of CSPB Kinase", BioOrganic & Medicinal Chemistry, to be published 1996).
Kinase reactions (total volume 30 ul) contain: 25 mM Hepes buffer, pH 7.5; 10 mM MgCl2; 170 uM ATP^(1); 10 uM Na ortho vanadate; 0.4 mM T669 peptide; and 20-80 ng of yeast-expressed purified CSBP2 (see Lee et al., Nature 300, n(72), 739-746 (December 1994)). Compounds (5 ul from [6×] stock^(2)) are pre-incubated with the enzyme and peptide for 20 min. on ice prior to starting the reactions with 32P/MgATP. Reactions are incubated at 30° C. for 10 min. and stopped by adding 10 ul of 0.3 M phosphoric acid. 32P-labeled peptide is separated on phosphocellulose (Wattman, p81) filters by spotting 30 ul reaction mixture. Filters are washed 3 times with 75 mM phosphoric acid followed by 2 washes with H2 O, and counted for 32P.
^(2) Compounds are usually dissolved in DMSO and are diluted in 25 mM HEPES buffer to get final concentration of DMSO of 0.17%.
One may read the IC50 as the point on the concentration scale where inhibition reaches its midpoint. Take `COc1nccc(-c2c(-c3ccc(F)cc3)ncn2C2CCCCC2)n1` [Example 12, 1-Cyclohexyl-4-(4-fluorophenyl)-5-(2-methoxypyrimidin-4-yl)imidazole]: the half-maximal inhibitory concentration (IC50) was under 50 µM. Still for that read-out and setting: to `COc1nccc(-c2c(-c3ccc(F)cc3)ncn2C2CC2)n1` [Example 14, 1-Cyclopropyl-4-(fluorophenyl)-5-(2-methoxypyrimidin-4-yl)imidazole] belongs under 50 µM; to `COc1nccc(-c2c(-c3ccc(F)cc3)ncn2C2CCCC2)n1` [Example 15, 1-Cyclopentyl-4-(4-fluorophenyl)-5-(2-methoxypyrimidin-4-yl)imidazole], under 50 µM.

Regarding `CCOc1nccc(-c2c(-c3ccc(F)cc3)ncn2[C@H]2CC[C@H](O)CC2)n1` [Example 9, trans-1-(4-Hydroxycyclohexyl)-4-(4-fluorophenyl)-5-[(2-ethoxy)pyrimidine-4-yl]imidazole], the half-maximal inhibitory concentration (IC50) is under 50 µM.

For a further assay, the target named is T2, p38 (Homo sapiens, UniProt Q16539).
T2 construct: made in house; host or cells: yeast
T2 sequence (Q16539 whole entry): as above
In words: CSBP Kinase Assay, minor variation (activated p38, T669 peptide, 96 well plate). The assay is classed as biochemical. To be noted: 0.17 mM ATP, 0.67 mM T669 peptide, 24 nM p38, 37° C., 25 min; read-out: positive inhibitory activity, IC50 in kinase assay (minor variation). As to the method: A minor variation of the above assay is shown below:
Reactions were carried in round bottom 96 well plate (from Corning) in a […]. Reactions contained (in final concentration): 25 mM Hepes, pH7.5; 8 mM MgCl2; 0.17 mM ATP (the Km[ATP] of p38 (see Lee et al., Nature 300, n72 pg 639-746 (December 1994)); 2.5 uCi of [g-32P]ATP; 0.2 mM sodium orthovanadate; 1 mM DTT; 0.1% BSA; 10% glycerol; 0.67 mM T669 peptide; and 24 nM of yeast-expressed, activated and purified p38. Reactions were initiated by the addition of [gamma-32P]Mg/ATP, and incubated for 25 min. at 37° C. Inhibitors (dissolved in DMSO) were incubated with the reaction mixture on ice for 30 minutes prior to adding the 32P-ATP. Final DMSO concentration was 0.16%. Reactions were terminated by adding 10 ul of 0.3 M phosphoric acid, and phosphorylated peptide was isolated from the reactions by capturing it on p81 phosphocellulose filters. Filters were washed with 75 mM phosphoric acids, and incorporated 32P was quantified using beta scintillation counter. Under these conditions, the specific activity of p38 was 400-450 pmol/pmol enzyme, and the activity was linear for up to 2 hr of incubation. The kinase activity values were obtained after subtracting values generated in the absence of substrate which were 10-15% of total values.
As for `COc1nccc(-c2c(-c3ccc(F)cc3)ncn2[C@H]2CC[C@H](OCSC)CC2)n1` [Example 17, trans-4-(4-Fluorophenyl)-5-(2-methoxypyrimidin-4-yl)-1-[4-(methylthiomethoxy)cyclohexyl]imidazole], the IC50 is under 50 µM. In the case of `COc1nccc(-c2c(-c3ccc(F)cc3)ncn2C2CCC2)n1` [Example 13, 1-Cyclobutyl-4-(4-fluorophenyl)-5-(2-methoxypyrimidin-4-yl)imidazole], the IC50 was under 50 µM. For `COc1nccc(-c2c(-c3ccc(F)cc3)ncn2[C@H]2CC[C@H](OCCN(C)C)CC2)n1` [Example 18, trans-4-(4-Fuorophenyl)-1-[4-(2-(N,N-dimethylamino)ethoxy)cyclohexyl]-5-[(2-methoxy)pyrimidine-4-yl]-imidazole hydrochloride], the IC50 is under 50 µM. On to `COc1nccc(-c2c(-c3ccc(F)cc3)ncn2C2CCCCCC2)n1` [Example 16, 1-Cycloheptyl-4-(4-fluorophenyl)-5-(2-methoxypyrimidin-4-yl)imidazole], for which the IC50 is under 50 µM.

The next assay deals with IL-1 and TNF.
Assay: not given
To be noted: cited from earlier work.
With `Fc1ccc(-c2nc3n(c2-c2ccncc2)CCS3)cc1` [SK&F 86002], the “inhibition of IL-1 and TNF” value was “inhibiting IL-1 and TNF”. With `C[S+]([O-])c1ccc(-c2nc(-c3ccncc3)c(-c3ccc(F)cc3)[nH]2)cc1` (stereo not drawn) [SB 203580], the “inhibition of IL-1 and TNF” value is “inhibiting IL-1 and TNF”.

The next assay relates to IL-6, IL-8, GM-CSF and COX-2.
Assay: not given
The note with it: cited from earlier work.
On to `Fc1ccc(-c2nc3n(c2-c2ccncc2)CCS3)cc1` [SK&F 86002], for which the “synthesis of pro-inflammatory proteins including IL-6, IL-8, GM-CSF and COX-2” value is “decrease the synthesis”. Consider `C[S+]([O-])c1ccc(-c2nc(-c3ccncc3)c(-c3ccc(F)cc3)[nH]2)cc1` (stereo not drawn) [SB 203580], for which the “synthesis of pro-inflammatory proteins including IL-6, IL-8, GM-CSF and COX-2” value is on record as “decrease the synthesis”.

These data come from US6251914A, “Cycloalkyl substituted imidazoles” (SmithKline Beecham Corporation, priority 1999, dated 2001).
